Like-named read-outs stand apart in the source and are kept apart here.
Experiment: Pharmacokinetics in dogs (plasma concentration by HPLC)
Assay type: in vivo, dog (beagle)
Conditions: for AUC(0-inf): read-out: AUCO- (to infinite time); for concentration at 0.5 h / concentration at 1 h / concentration at 2 h / concentration at 4 h / concentration at 7 h / Cmax / AUC(0-t) at 4 h: one dog (Dog 1); for concentration at 0.5 h / concentration at 1 h / concentration at 2 h / concentration at 4 h / concentration at 7 h: heading: Plasma concentration; for AUC(0-t) at 4 h: read-out: AUC0-4
Description: Since dogs are used in toxicology studies of antiasthma compounds, this species is chosen for pharmacokinetic evaluations. Use of the dog permits the pharmacokinetic comparison of 2 or more compounds in the same test animal, an evaluation which could not be conveniently performed in a smaller species. For each test compound, normal dogs are given a dose of 2.0 mg/kg/day for 5 consecutive days. There is a washout period of 1 month between the study of each of the test compounds in the same four dogs. Each test compound is administered as a solution of 5 mg/ml in either 0.05 or 0.1N HCl which is dispensed into a gelatin capsule immediately prior to dosage.
Heparinized blood samples are obtained from each animal on the first, third and fifth day of dosage at 0.5, 1.0, 2.0, 4.0, 7.0, 12.0 and 24.0 hours after the dose. The samples are centrifuged immediately to obtain plasma which is frozen until analyzed.
Analysis of plasma is performed using High Performance Liquid Chromatography (HPLC). The analytical procedure is essentially identical for each compound. The internal standard used for N-[3-[2-(1H-imidazol-1-yl)ethoxy]phenyl]-4-(2-thienyl)2-pyrimidinamine is 2-chloro-11-(4-methyl-1-piperazinyl)dibenz[b,f][1,4]oxazepine succinate, while for 2-methyl-N^4 -[4-(4-pyridinyl)-2-pyrimidinyl]-1,4-benzenediamine dihydrochloride and N-[4-[2-(diethylamino)ethoxy]phenyl]-4-(4-pyridinyl)-2-pyrimidnamine dihydrochloride the internal standard is 7-ethoxy-coumarin. In a typical procedure, a 0.4 ml volume of acetonitrile containing internal standard is added a 0.2 ml volume of serum. The sample is mixed by vortexing and centrifuged. The clear protein free supernatent fluid is decanted into a clean tube and evaporated to dryness. The dry residue is dissolved in 0.2 ml of HPLC mobile phase and 50 ul of this solution injected. Peaks corresponding to the test compound being measured and to the internal standard compound are quantitated by their absorption of ultraviolet light at 280 nm. Each set of analytical samples is accompanied by the analysis of a group of standard dog plasma samples prepared to contain amounts of the compound being measured which encompasses the concentration range of the samples.
Four normal beagle dogs weighing between 9.2 and 10.2 Kg are used in the study.

[1] = dog, plasma, po, 2 mg/kg/day, Dog 1, day 1, 2 mg/kg/day PO
[2] = dog, plasma, po, 2 mg/kg/day, Dog 1, day 3, 2 mg/kg/day PO
[3] = dog, plasma, po, 2 mg/kg/day, Dog 1, day 5, 2 mg/kg/day PO
[4] = dog, plasma, po, 2 mg/kg/day, day 1, 2 mg/kg/day PO
[5] = dog, plasma, po, 2 mg/kg/day, day 3, 2 mg/kg/day PO
[6] = dog, plasma, po, 2 mg/kg/day, day 5, 2 mg/kg/day PO

Tmax [1]: 1 h | half-life [1]: 106 min | AUC(0-inf) [1]: 374 ng·h/mL | Tmax [2]: 1 h | half-life [2]: 75 min | AUC(0-inf) [2]: 423 ng·h/mL | Tmax [3]: 1 h | half-life [3]: 130 min | AUC(0-inf) [3]: 392 ng·h/mL | concentration at 0.5 h (dog, plasma, po, 2 mg/kg/day, day 1, 0.5 h, 2 mg/kg/day PO): 30 ng/mL | concentration at 1 h (dog, plasma, po, 2 mg/kg/day, day 1, 1.0 h, 2 mg/kg/day PO): 125 ng/mL | concentration at 2 h (dog, plasma, po, 2 mg/kg/day, day 1, 2.0 h, 2 mg/kg/day PO): 102 ng/mL | concentration at 4 h (dog, plasma, po, 2 mg/kg/day, day 1, 4.0 h, 2 mg/kg/day PO): 40 ng/mL | concentration at 7 h (dog, plasma, po, 2 mg/kg/day, day 1, 7.0 h, 2 mg/kg/day PO): < 30 ng/mL | Cmax [4]: 125 ng/mL | AUC(0-t) at 4 h [4]: 302 ng·h/mL | concentration at 0.5 h (dog, plasma, po, 2 mg/kg/day, day 3, 0.5 h, 2 mg/kg/day PO): 124 ng/mL | concentration at 1 h (dog, plasma, po, 2 mg/kg/day, day 3, 1.0 h, 2 mg/kg/day PO): 192 ng/mL | concentration at 2 h (dog, plasma, po, 2 mg/kg/day, day 3, 2.0 h, 2 mg/kg/day PO): 81 ng/mL | concentration at 4 h (dog, plasma, po, 2 mg/kg/day, day 3, 4.0 h, 2 mg/kg/day PO): 34 ng/mL | concentration at 7 h (dog, plasma, po, 2 mg/kg/day, day 3, 7.0 h, 2 mg/kg/day PO): < 30 ng/mL | Cmax [5]: 192 ng/mL | AUC(0-t) at 4 h [5]: 362 ng·h/mL | concentration at 0.5 h (dog, plasma, po, 2 mg/kg/day, day 5, 0.5 h, 2 mg/kg/day PO): < 30 ng/mL | concentration at 1 h (dog, plasma, po, 2 mg/kg/day, day 5, 1.0 h, 2 mg/kg/day PO): 153 ng/mL | concentration at 2 h (dog, plasma, po, 2 mg/kg/day, day 5, 2.0 h, 2 mg/kg/day PO): 82 ng/mL | concentration at 4 h (dog, plasma, po, 2 mg/kg/day, day 5, 4.0 h, 2 mg/kg/day PO): 55 ng/mL | concentration at 7 h (dog, plasma, po, 2 mg/kg/day, day 5, 7.0 h, 2 mg/kg/day PO): < 30 ng/mL | Cmax [6]: 153 ng/mL | AUC(0-t) at 4 h [6]: 293 ng·h/mL | k el (dog, plasma, po, 2 mg/kg/day, derived from mean of half-life values, read-out: elimination constant (converted)): 0.000155 s⁻¹
Compound: CCN(CC)CCOc1ccc(Nc2nccc(-c3ccncc3)n2)cc1.Cl.Cl [Compound 3, N-[4-[2-(diethylamino)ethoxy]phenyl]-4-(4-pyridinyl)-2-pyrimidinamine dihydrochloride, reference compound]
measurable concentrations in plasma (in words) (four dogs, 2 mg/kg/day PO): only one dog provided measurable concentrations of compound in the plasma
